Legend:
[1] = Inhibitory activity at calcium activated potassium channel 6 at 10 uM
[2] = molecular target: Epidermal growth factor receptor (Homo sapiens) (UniProt P00533); experiment: Inhibition of EGFR at 100 nM
[3] = Inhibitory activity at site 2 of sodium channel at 1 nM
[4] = Inhibition of non selective binding to VIP at 1 nM
[5] = molecular target: Protein kinase C, PKC; classical/novel (Homo sapiens) (UniProt O94806+P17252+P05129+Q05655+P05771+Q02156+P24723+Q15139+Q04759); experiment: Inhibition of PDBu activated protein kinase C at 1 nM; format: protein assay
[6] = molecular target: T1, 5-hydroxytryptamine receptor 1A (Homo sapiens) (UniProt P08908); experiment: Inhibition of forskolin activated adenylate cyclase at 100 nM; format: functional
T1 sequence (whole entry): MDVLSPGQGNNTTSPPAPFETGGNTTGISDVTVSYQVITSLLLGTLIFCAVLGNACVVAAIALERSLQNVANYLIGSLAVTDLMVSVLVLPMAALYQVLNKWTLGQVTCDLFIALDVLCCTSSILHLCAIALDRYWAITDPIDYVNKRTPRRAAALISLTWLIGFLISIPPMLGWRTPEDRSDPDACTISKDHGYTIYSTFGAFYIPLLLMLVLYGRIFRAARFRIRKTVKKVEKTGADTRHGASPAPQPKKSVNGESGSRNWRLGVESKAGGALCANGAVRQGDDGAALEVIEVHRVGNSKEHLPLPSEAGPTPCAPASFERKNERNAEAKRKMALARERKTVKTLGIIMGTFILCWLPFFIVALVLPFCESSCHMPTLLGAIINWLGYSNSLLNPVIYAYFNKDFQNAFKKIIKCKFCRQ

[7] = molecular target: Adenosine receptor (Homo sapiens) (UniProt P30542+P29275+P0DMS8+P29274); experiment: Inhibition of non selective binding to adenosine receptor at 10 uM; format: protein assay
[8] = molecular target: Glutamate receptor ionotropic AMPA (Homo sapiens) (UniProt P48058+P42263+P42262+P42261); experiment: Inhibition of AMPA receptor at 100 nM; format: protein-complex assay
[9] = molecular target: T2, Adrenergic receptor beta (Homo sapiens) (UniProt P08588+P07550+P13945); experiment: Inhibition of non selective binding to adrenergic beta receptor at 10 uM; format: protein assay
[10] = molecular target: T3, GABA-A receptor; agonist GABA site (Homo sapiens) (UniProt P14867+P47870+P28472+P48169+P34903+P18505+P47869+P31644+Q16445); experiment: Inhibition of agonist site of GABAA receptor at 100 nM; format: functional
[11] = Inhibitory activity at site 2 of sodium channel at 10 uM
[12] = Inhibition of alpha-bungarotoxin insensitive nicotinic receptor at 1 nM
[13] = molecular target: Sodium-dependent serotonin transporter (Homo sapiens, UniProt P31645); experiment: Inhibitory activity against SERT
[14] = molecular target: T4, monoamine oxidase B (MAO-B) (Rattus norvegicus, UniProt P19643); experiment: Inhibition of monoamine oxidase B in rat brain at 1 nM; format: tissue-based
T4 sequence (P19643 whole entry): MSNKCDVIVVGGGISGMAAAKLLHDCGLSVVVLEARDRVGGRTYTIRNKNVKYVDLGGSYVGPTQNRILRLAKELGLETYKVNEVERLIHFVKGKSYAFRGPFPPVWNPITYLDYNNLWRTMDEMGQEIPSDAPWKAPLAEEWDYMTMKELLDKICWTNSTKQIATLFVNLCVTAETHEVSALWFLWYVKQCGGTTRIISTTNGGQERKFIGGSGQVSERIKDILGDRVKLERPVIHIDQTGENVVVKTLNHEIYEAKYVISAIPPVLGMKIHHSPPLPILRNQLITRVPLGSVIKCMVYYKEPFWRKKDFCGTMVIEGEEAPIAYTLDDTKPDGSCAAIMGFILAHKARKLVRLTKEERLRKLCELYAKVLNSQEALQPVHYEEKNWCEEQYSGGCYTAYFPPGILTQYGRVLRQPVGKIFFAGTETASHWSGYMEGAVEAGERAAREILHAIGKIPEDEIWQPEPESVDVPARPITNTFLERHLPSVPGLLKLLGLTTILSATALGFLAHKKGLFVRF

Homo sapiens = species on record: Homo sapiens; experiment: Inhibition of inositol triphosphate IP3 at 1 nM; format: functional
[15] = molecular target: L-type calcium channel, dihydropyridine site (Homo sapiens, UniProt O60840+Q01668+Q13698+Q13936); experiment: Inhibitory activity at dihydropyridine site of Calcium channel L type at 1 nM; format: protein assay
[16] = molecular target: Epidermal growth factor receptor (Homo sapiens) (UniProt P00533); experiment: Inhibition of EGFR at 1 nM
[17] = molecular target: T2, Adrenergic receptor beta (Homo sapiens); experiment: Inhibition of non selective binding to adrenergic beta receptor at 100 nM; format: protein assay
[18] = molecular target: T2, Adrenergic receptor beta (Homo sapiens); experiment: Inhibition of non selective binding to adrenergic beta receptor at 1 nM; format: protein assay
[19] = molecular target: T5, Androgen receptor (Homo sapiens) (UniProt P10275); experiment: Inhibition of testosterone receptor at 10 uM
T5 sequence (whole entry): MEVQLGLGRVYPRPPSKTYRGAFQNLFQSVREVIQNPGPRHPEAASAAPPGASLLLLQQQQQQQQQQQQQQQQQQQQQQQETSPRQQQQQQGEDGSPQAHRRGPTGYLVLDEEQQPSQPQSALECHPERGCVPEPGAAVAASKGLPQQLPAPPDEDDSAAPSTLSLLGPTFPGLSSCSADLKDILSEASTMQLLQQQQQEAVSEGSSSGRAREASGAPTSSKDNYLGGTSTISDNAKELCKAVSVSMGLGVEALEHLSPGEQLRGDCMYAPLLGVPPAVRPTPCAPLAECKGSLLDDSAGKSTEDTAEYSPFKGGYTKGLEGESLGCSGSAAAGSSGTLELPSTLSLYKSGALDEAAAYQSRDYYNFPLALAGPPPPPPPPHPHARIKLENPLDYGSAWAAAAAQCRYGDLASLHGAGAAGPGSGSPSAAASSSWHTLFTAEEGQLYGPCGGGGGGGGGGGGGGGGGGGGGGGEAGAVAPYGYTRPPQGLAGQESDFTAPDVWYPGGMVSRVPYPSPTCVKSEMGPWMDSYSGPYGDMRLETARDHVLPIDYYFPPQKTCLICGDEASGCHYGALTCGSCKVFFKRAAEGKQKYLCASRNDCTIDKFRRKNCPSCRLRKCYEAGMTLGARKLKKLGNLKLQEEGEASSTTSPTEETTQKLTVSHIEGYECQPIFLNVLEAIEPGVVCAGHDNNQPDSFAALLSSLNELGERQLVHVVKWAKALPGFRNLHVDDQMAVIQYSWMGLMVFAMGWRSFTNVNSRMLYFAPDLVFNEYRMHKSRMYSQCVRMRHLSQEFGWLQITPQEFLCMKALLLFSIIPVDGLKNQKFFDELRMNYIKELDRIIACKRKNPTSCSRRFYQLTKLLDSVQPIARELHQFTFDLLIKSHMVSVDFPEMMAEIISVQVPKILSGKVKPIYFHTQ

[20] = molecular target: Alpha-2B adrenergic receptor (Homo sapiens, UniProt P18089); experiment: Activity at adrenergic alpha-2B receptor expressed in opposum kidney OK cell by adenylyl cyclase assay; format: functional, cell-based
[21] = molecular target: T3, GABA-A receptor; agonist GABA site (Homo sapiens); experiment: Inhibition of agonist site of GABAA receptor at 10 uM; format: functional

Sequence of Epidermal growth factor receptor (Homo sapiens) (P00533 whole entry): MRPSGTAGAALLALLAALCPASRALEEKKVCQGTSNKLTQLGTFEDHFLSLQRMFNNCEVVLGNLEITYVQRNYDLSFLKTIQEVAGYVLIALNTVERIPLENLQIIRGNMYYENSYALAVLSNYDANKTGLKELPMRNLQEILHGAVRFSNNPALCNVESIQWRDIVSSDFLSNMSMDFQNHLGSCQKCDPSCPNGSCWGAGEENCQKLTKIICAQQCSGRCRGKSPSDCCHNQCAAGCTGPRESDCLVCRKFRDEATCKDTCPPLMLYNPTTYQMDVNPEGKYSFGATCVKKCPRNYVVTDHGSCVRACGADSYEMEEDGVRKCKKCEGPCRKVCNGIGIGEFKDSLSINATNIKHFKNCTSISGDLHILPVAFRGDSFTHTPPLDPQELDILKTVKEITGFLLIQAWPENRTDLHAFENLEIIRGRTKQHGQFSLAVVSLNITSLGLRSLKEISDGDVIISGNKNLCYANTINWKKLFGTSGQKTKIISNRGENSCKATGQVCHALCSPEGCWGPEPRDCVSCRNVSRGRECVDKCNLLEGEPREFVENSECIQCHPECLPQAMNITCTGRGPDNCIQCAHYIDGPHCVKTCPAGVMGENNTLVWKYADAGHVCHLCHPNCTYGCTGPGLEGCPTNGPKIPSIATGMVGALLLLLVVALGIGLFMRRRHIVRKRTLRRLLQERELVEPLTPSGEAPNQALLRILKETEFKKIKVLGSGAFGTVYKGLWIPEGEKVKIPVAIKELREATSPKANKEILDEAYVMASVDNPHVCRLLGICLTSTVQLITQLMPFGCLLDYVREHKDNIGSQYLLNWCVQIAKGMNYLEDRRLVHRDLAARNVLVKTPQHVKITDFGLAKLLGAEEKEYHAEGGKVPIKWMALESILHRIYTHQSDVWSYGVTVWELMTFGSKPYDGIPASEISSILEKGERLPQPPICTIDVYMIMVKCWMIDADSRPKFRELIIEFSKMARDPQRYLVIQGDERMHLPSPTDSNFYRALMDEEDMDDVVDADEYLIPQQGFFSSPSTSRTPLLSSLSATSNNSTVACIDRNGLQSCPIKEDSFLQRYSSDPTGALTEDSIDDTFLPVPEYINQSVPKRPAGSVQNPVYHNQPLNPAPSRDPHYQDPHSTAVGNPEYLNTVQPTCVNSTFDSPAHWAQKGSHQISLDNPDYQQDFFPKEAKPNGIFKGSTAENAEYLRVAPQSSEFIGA
Sequence of Adenosine receptor (Homo sapiens) (P0DMS8 whole entry, looked up): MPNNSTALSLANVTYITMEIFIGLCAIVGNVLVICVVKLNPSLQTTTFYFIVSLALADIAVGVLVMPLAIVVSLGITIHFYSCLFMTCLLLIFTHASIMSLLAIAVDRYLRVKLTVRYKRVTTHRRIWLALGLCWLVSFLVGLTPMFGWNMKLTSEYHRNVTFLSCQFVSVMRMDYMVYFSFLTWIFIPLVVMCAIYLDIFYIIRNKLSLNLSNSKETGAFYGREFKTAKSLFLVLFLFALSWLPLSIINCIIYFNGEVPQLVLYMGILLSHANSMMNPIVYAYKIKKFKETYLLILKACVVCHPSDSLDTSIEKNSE
Sequence of Adenosine receptor (Homo sapiens) (P29274 whole entry, looked up): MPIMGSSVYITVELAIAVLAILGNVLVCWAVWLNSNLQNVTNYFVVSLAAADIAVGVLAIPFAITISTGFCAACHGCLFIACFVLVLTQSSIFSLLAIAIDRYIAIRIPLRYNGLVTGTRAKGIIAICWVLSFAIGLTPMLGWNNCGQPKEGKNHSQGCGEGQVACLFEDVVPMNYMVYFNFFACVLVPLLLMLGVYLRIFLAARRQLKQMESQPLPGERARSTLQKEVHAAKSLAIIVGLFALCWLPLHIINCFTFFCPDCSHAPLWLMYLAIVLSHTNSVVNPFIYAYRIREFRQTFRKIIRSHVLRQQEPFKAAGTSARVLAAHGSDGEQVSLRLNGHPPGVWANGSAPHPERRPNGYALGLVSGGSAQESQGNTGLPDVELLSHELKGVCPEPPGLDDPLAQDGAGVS
Sequence of Adenosine receptor (Homo sapiens) (P29275 whole entry, looked up): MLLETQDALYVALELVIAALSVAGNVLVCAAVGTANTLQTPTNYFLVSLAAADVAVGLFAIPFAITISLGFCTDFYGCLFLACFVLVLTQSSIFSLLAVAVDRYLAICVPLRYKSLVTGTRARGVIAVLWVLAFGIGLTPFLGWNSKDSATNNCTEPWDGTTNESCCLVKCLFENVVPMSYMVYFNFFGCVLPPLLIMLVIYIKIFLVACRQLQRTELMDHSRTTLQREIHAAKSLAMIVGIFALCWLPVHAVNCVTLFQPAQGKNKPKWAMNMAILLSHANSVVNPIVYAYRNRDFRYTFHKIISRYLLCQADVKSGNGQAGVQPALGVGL
Sequence of Adenosine receptor (Homo sapiens) (P30542 whole entry, looked up): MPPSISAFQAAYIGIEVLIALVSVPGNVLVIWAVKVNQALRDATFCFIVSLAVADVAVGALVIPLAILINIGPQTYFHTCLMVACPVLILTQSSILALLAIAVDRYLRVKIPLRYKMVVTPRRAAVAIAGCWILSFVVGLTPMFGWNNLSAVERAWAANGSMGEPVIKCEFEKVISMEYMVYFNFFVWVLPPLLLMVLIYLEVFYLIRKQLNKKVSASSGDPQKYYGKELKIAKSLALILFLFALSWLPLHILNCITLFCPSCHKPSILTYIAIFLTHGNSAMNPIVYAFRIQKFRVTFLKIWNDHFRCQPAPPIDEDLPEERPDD
Sequence of Alpha-2B adrenergic receptor (P18089 whole entry): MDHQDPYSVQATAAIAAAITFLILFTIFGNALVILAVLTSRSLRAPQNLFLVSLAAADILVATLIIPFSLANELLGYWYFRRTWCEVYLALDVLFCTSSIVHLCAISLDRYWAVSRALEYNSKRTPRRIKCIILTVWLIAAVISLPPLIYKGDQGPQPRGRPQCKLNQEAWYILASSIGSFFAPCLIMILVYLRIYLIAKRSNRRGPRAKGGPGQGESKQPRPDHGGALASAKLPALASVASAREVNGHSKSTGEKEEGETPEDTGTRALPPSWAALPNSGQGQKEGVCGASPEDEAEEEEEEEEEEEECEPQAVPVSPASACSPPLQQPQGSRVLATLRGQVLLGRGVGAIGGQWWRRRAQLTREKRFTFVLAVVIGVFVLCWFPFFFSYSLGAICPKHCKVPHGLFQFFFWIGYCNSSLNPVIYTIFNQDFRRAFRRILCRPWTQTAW
Sequence of Sodium-dependent serotonin transporter (P31645 whole entry): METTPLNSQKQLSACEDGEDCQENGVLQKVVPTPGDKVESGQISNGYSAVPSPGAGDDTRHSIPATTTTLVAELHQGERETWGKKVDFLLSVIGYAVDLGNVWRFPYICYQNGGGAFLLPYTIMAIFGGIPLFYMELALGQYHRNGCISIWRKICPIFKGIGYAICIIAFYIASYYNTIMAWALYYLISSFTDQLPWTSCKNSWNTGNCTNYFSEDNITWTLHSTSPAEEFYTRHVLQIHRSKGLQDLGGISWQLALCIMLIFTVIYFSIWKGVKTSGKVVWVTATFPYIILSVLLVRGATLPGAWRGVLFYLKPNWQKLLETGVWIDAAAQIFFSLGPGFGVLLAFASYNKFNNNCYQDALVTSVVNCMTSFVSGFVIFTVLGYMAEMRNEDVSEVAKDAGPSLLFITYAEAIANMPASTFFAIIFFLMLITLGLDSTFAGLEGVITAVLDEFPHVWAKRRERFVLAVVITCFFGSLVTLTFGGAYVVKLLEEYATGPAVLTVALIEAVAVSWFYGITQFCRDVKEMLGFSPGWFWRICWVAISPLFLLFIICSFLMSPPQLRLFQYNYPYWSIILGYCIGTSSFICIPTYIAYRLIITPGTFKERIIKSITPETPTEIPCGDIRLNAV

Work on `C[C@H](N)Cn1ncc2ccc(O)cc21` yielded an inhibition [1] of -8.15%, an inhibition [2] of 1.86% and an inhibition [3] of 10.3%. It also gave an inhibition [4] of 5.87%, an inhibition [5] of 12.6% and an inhibition [6] of -2.24%. For the same molecule, the inhibition [7] was 13.2%, the inhibition [8] was 9.45% and the inhibition [9] was 30.4%. The inhibition [10] was -0.91%, the inhibition [11] was -0.61% and the inhibition [12] was 7.15%. The Ki [13] was greater than 10 µM, the inhibition at 0.001 µM [14] was -15.4% and the inhibition (Homo sapiens) was 6.53%. It also gave an inhibition at 0.001 µM [15] of 2.17%, an inhibition [16] of 1.44% and an inhibition [17] of -7.77%. For the same molecule, the inhibition [18] was -5.75%, the inhibition [19] was 21.9% and the EC50 [20] was 3.05 µM. The inhibition [21] was 6.69%.
